Test results reported in Sander's compilation of Henry's law constants (doi:10.1016/j.chroma.2014.03.040).

Assay: Henry solubility constant Hcp at 298.15 K (mol/(m3 Pa))
Conditions: reference: Kim and Kim (2014)

First: CC(C)CO [2-methyl-1-propanol]
Second: CC(=O)CC(C)C [4-methyl-2-pentanone]
The “Henry solubility constant Hcp” value of the first is higher: 0.22 for the first, 0.039 for the second.

Going from `Cc1ccccc1C` [1,2-dimethylbenzene] to `Cc1ccccc1` [methylbenzene], the “Henry solubility constant Hcp” value falls from 0.0019 to 0.0015.

First: CC(C)CC=O [3-methylbutanal]
Second: CCCC=O [butanal]
The “Henry solubility constant Hcp” value of the first is lower: 0.021 for the first, 0.061 for the second.

Going from `c1ccccc1` [benzene] to `C=Cc1ccccc1` [ethenylbenzene], the “Henry solubility constant Hcp” value rises from 0.0017 to 0.0027.

First: CCCCOC(C)=O [butyl ethanoate]
Second: CCCCC=O [pentanal]
The “Henry solubility constant Hcp” value of the first is lower: 0.024 for the first, 0.039 for the second.

`Cc1cccc(C)c1` [1,3-dimethylbenzene] and `Cc1ccc(C)cc1` [1,4-dimethylbenzene] are the same in “Henry solubility constant Hcp” value: 0.0013 for the first, 0.0013 for the second.
